Structures can show the parent of a compound that is named as a salt.
melting point	Compound
76 °C	Cc1ccc(C(NC(=O)C2(c3ccc4c(c3)CS(=O)(=O)N4CC3CCOCC3)CC2)c2ccc(C)o2)c(C)c1 (centres unmarked) (as salt: HCl) [Cpd. 157, N-[(2,4-dimethylphenyl)(5-methylfuran-2-yl)methyl]-1-[1-(oxan-4-ylmethyl)-2,2-dioxo-1,3-dihydro-2,1-benzothiazol-5-yl]cyclopropane-1-carboxamide]
70 °C	Cc1ccc(C(NC(=O)C2(c3ccc4c(c3)CS(=O)(=O)N4C)CC2)c2ccc(Cl)o2)c(C)c1 (centres unmarked) (as salt: HCl) [Cpd. 160, N-[(5-chlorofuran-2-yl)(2,4-dimethylphenyl)methyl]-1-(1-methyl-2,2-dioxo-1,3-dihydro-2,1-benzothiazol-5-yl)cyclopropane-1-carboxamide]
55 °C	Cc1ccc(C(NC(=O)C2(c3ccc4c(c3)OCO4)CC2)c2ccc(C)o2)c(Br)c1 (centres unmarked) (as salt: HCl) [Cpd. 161, 1-(2H-1,3-benzodioxol-5-yl)-N-[(2-bromo-4-methylphenyl)(5-methylfuran-2-yl)methyl]cyclopropane-1-carboxamide]
87 °C	Cc1ccc(C(NC(=O)C2(c3ccc4c(c3)CS(=O)(=O)N4CC3CCOCC3)CC2)c2ccc(C)o2)c(N2CCCCC2)c1 (centres unmarked) (as salt: HCl) [Cpd. 162, N-{[4-methyl-2-(piperidin-1-yl)phenyl](5-methylfuran-2-yl)methyl}-1-[1-(oxan-4-ylmethyl)-2,2-dioxo-1,3-dihydro-2,1-benzothiazol-5-yl]cyclopropane-1-carboxamide]
85 °C	Cc1ccc(C(NC(=O)C2(c3ccc4c(c3)CS(=O)(=O)N4CC3CCOCC3)CC2)c2ccc(C)o2)c(Br)c1 (centres unmarked) (as salt: HCl) [Cpd. 163, N-[(2-bromo-4-methylphenyl)(5-methylfuran-2-yl)methyl]-1-[1-(oxan-4-ylmethyl)-2,2-dioxo-1,3-dihydro-2,1-benzothiazol-5-yl]cyclopropane-1-carboxamide]
83 °C	Cc1ccc(C(NC(=O)Cc2ccc3c(c2)CS(=O)(=O)N3CC2CCOCC2)c2ccc(C)o2)c(C)c1 (centres unmarked) (as salt: HCl) [Cpd. 166, N-[(2,4-dimethylphenyl)(5-methylfuran-2-yl)methyl]-2-[1-(oxan-4-ylmethyl)-2,2-dioxo-1,3-dihydro-2,1-benzothiazol-5-yl]acetamide]
85 °C	Cc1ccc(C(NC(=O)Cc2ccc3c(c2)CS(=O)(=O)N3CC2CCOCC2)c2ccc(C)o2)c(N2CCCCC2)c1 (centres unmarked) (as salt: HCl) [Cpd. 167, N-{[4-methyl-2-(piperidin-1-yl)phenyl](5-methylfuran-2-yl)methyl}-2-[1-(oxan-4-ylmethyl)-2,2-dioxo-1,3-dihydro-2,1-benzothiazol-5-yl]acetamide]
65 °C	Cc1ccc(C(NC(=O)C2(c3ccc4c(c3)OCS(=O)(=O)N4C)CC2)c2ccc(C)o2)c(C)c1 (centres unmarked) (as salt: HCl) [Cpd. 172, N-[(2,4-dimethylphenyl)(5-methylfuran-2-yl)methyl]-1-(1-methyl-2,2-dioxo-1,3-dihydro-4,2,1-benzoxathiazin-6-yl)cyclopropane-1-carboxamide]
71 °C	Cc1ccc(C(NC(=O)C2(c3ccc4c(c3)OCS(=O)(=O)N4C)CC2)c2ccc(C)o2)c(Br)c1 (centres unmarked) (as salt: HCl) [Cpd. 173, N-[(2-bromo-4-methylphenyl)(5-methylfuran-2-yl)methyl]-1-(1-methyl-2,2-dioxo-1,3-dihydro-4,2,1-benzoxathiazin-6-yl)cyclopropane-1-carboxamide]

The remaining lines, values behind:

Compound	melting point
Cc1ccc(C(NC(=O)C2(c3ccc4c(c3)OCC(=O)N4)CC2)c2ccc(C)o2)c(N(C)C)c1 (centres unmarked) (as salt: HCl) [Cpd. 156, N-{[2-(dimethylamino)-4-methylphenyl](5-methylfuran-2-yl)methyl}-1-(3-oxo-3,4-dihydro-2H-1,4-benzoxazin-7-yl)cyclopropane-1-carboxamide]	99 °C
Cc1ccc(C(NC(=O)C2(c3cc(F)c4c(c3)CC(=O)N4)CC2)c2ccc(C)o2)c(C)c1 (centres unmarked) (as salt: HCl) [Cpd. 158, N-[(2,4-dimethylphenyl)(5-methylfuran-2-yl)methyl]-1-(7-fluoro-2-oxo-2,3-dihydro-1H-indol-5-yl)cyclopropane-1-carboxamide]	102 °C
Cc1ccc(C(NC(=O)C2(c3ccc4c(c3)C(F)(F)C(=O)N4)CC2)c2ccc(C)o2)c(C)c1 (centres unmarked) (as salt: HCl) [Cpd. 159, 1-(3,3-difluoro-2-oxo-2,3-dihydro-1H-indol-5-yl)-N-[(2,4-dimethylphenyl)(5-methylfuran-2-yl)methyl]cyclopropane-1-carboxamide]	177 °C
Cc1ccc(C(NC(=O)C2(c3ccc4c(c3)OCO4)CC2)c2ccc(C)o2)c(N2CCCCC2)c1 (centres unmarked) (as salt: HCl) [Cpd. 164, 1-(2H-1,3-benzodioxol-5-yl)-N-{[4-methyl-2-(piperidin-1-yl)phenyl](5-methylfuran-2-yl)methyl}cyclopropane-1-carboxamide]	51 °C
Cc1ccc(C(NC(=O)C2(c3ccc4c(c3)CCC4=NO)CC2)c2ccc(C)o2)c(C)c1 (centres unmarked) (as salt: HCl) [Cpd. 165, N-[(2,4-dimethylphenyl)(5-methylfuran-2-yl)methyl]-1-[1-(hydroxyimino)-2,3-dihydro-1H-inden-5-yl]cyclopropane-1-carboxamide]	68 °C
Cc1ccc(C(NC(=O)Cc2ccc3c(ccn3S(C)(=O)=O)c2)c2ccc(C)o2)c(N2CCCCC2)c1 (centres unmarked) (as salt: ammonium) [Cpd. 106, 2-(1-methanesulfonyl-1H-indol-5-yl)-N-{[4-methyl-2-(piperidin-1-yl)phenyl](5-methylfuran-2-yl)methyl}acetamide]	83 °C
CCSc1nc2cc(CC(=O)NC(c3ccccc3)c3ccc(C)cc3Br)ccc2[nH]1 (centres unmarked) (as salt: hydrochloride) [Cpd. 92, N-[(2-bromo-4-methylphenyl)(phenyl)methyl]-2-[2-(ethylsulfanyl)-1H-1,3-benzodiazol-5-yl]acetamide]	103 °C
Cc1ccc(C(NC(=O)Cc2ccc3c(c2)C(=O)C(=O)N3C)c2ccc(C)o2)c(N2CCCCC2)c1 (centres unmarked) (as salt: sodium) [Cpd. 45, 2-(1-methyl-2,3-dioxo-2,3-dihydro-1H-indol-5-yl)-N-{[4-methyl-2-(piperidin-1-yl)phenyl](5-methylfuran-2-yl)methyl}acetamide]	99 °C
Cc1ccc(C(NC(=O)Cc2ccc3c(c2)C(O)C(=O)N3)c2ccc(C)o2)c(N2CCCCC2)c1 (centres unmarked) (as salt: sodium) [Cpd. 46, 2-(3-hydroxy-2-oxo-2,3-dihydro-1H-indol-5-yl)-N-{[4-methyl-2-(piperidin-1-yl)phenyl](5-methylfuran-2-yl)methyl}acetamide]	110 °C
Cc1ccc(C(NC(=O)Cc2ccc3c(c2)CCC3O)c2ccc(C)o2)c(N2CCCCC2)c1 (centres unmarked) (as salt: sodium) [Cpd. 52, 2-(1-hydroxy-2,3-dihydro-1H-inden-5-yl)-N-{[4-methyl-2-(piperidin-1-yl)phenyl](5-methylfuran-2-yl)methyl}acetamide]	97 °C
Cc1ccc(C(NC(=O)Cc2ccc3c(c2)C(O)CC3)c2ccc(C)o2)c(N2CCCCC2)c1 (centres unmarked) (as salt: sodium) [Cpd. 85, 2-(3-hydroxy-2,3-dihydro-1H-inden-5-yl)-N-{[4-methyl-2-(piperidin-1-yl)phenyl](5-methylfuran-2-yl)methyl}acetamide]	60 °C

Source: patent publication US11052092B2, “N-{[2-(piperidin-1-yl)phenyl](phenyl)methyl}-2-(3-oxo-3,4-dihydro-2H-1,4-benzoxazin-7-yl)acetamide derivatives and related compounds as ROR-gamma modulators for treating autoimmune diseases” (Genfit, priority 2017, dated 2021)
